Measured values: EPA's ToxValDB 9.5
Where “and” joins values, the source holds several entries; their conditions need not be identical. Equal values may be shown once. Blank lines part the entries; values can stand above or below the compound they belong to.

Experiments:
Rattus norvegicus [1] = system: Rattus norvegicus
Rattus norvegicus [2] = system: Rattus norvegicus; remark: listed apart in the source
Rattus norvegicus [3] = conditions: for LEL: uterotrophic, Active
Rattus norvegicus [4] = conditions: oral; for NOAEL: diet
Rattus norvegicus [5] = conditions: oral, M/F
Mus musculus = conditions: uterotrophic, Active
[6] = chronic, duration: 1 years, oral, blood pressure and body weight histopathological liver, kidney and spleen
[7] = duration: 4 days, injection, subcutaneous
[8] = Hershberger, duration: 10 days, oral, gavage, Sprague-Dawley, active + Androgenic + Negative + androgenic
[9] = chronic, oral, gavage, F, increased kidney weight in female rats
[10] = subchronic, duration: 13 weeks, inhalation, M/F, increased kidney weight in female rats and adrenal weight in male and female rats
[11] = duration: 1 days, injection, intraperitoneal
[12] = duration: 3 days, injection, intraperitoneal
[13] = duration: 10 days, injection, subcutaneous
[14] = duration: 0 days, injection, intraperitoneal
[15] = chronic, oral, M/F, renal damage
[16] = duration: 14 days, injection, subcutaneous

SMILES: Cc1ccc(O)cc1C [3,4-Dimethylphenol]
LOAEL (Rattus norvegicus [1]; [6]): 14 mg/kg-day | NOEL (Rattus norvegicus [1]; [6]): 1.4 mg/kg-day | NOEL (Rattus norvegicus [2]; chronic, duration: 8 months, oral, Cardiovascular system: Altered blood pressure + Organs, major: Lesions + Whole body: Decreased weight): 1.4 mg/kg-day

SMILES: COP(=O)(NC(C)=O)SC (centres undefined) [Acephate]
LEL (Rattus norvegicus [1]; subchronic, duration: 90 days, oral, diet, M, Inhibition of brain ChE): 0.12 mg/kg-day | LOAEL (Rattus norvegicus [2]; subchronic, duration: 13 weeks, oral, diet, Brain: Decreased cholinesterase activity): 0.192 mg/kg-day

SMILES: S=C([S-])NCCNC(=S)[S-].[Zn+2] [Zineb]
LOAEL (Rattus norvegicus [1]; chronic, oral, M/F, thyroid hyperplasia): 25 mg/kg-day | LOAEL (Rattus norvegicus [2]; chronic, duration: 2 years, oral, diet, hyperplasia): 25 mg/kg-day

SMILES: COP(=S)(OC)Oc1nc(Cl)c(Cl)cc1Cl [Chlorpyrifos-methyl]
LOEL (Rattus norvegicus [3]; Hershberger, duration: 10 days, oral, gavage, Sprague-Dawley, active + Negative + Antiandrogenic + anti-androgenic): 50 mg/kg-day | NOAEL (Rattus norvegicus [2]; reproduction developmental, duration: 3 years, oral, diet, Liver: Effects + Reproduction: Decreased fertility): 1 mg/kg-day

SMILES: CC(C)CCCCCCc1ccc(O)cc1 [4-Nonylphenol, branched]
LD50 (Rattus norvegicus [4]; acute): 1880 mg/kg | NOAEL (Rattus norvegicus [4]; reproduction developmental, Sprague-Dawley): 15 mg/kg-day | NOAEL (Rattus norvegicus [4]; short-term, duration: 28 days, Crl:CD(SD) BR): 100 mg/kg-day | NOAEL (Rattus norvegicus [4]; subchronic, duration: 90 days, Sprague-Dawley): 50 mg/kg-day | NOEL (Rattus norvegicus [5]; short-term, duration: 28 days, gavage, Crj:CD, Deaths + Clinical Observation: Salivation, Urinary incontinence Abnormal estrus cycle + Hematology: Ret increase, RBC decrease, Plt increase…): 10 mg/kg-day | LEL (Mus musculus; duration: 3 days, injection, subcutaneous): 1000 mg/kg-day | LEL (Rattus norvegicus [3]; duration: 3 days, oral): 190 mg/kg-day

SMILES: COC(=O)c1ccc(C(=O)OC)cc1 [Dimethyl terephthalate]
NOAEL (Rattus norvegicus [5]; subchronic, duration: 90 days, diet, Body Weight Changes: Weight gain decrease + Histopathology: Liver: Hepatocyte hypertrophy, diffuse): 480 mg/kg-day | LOAEL (Rattus norvegicus [1]; chronic, oral, diet, M/F, chronic kidney inflammation): 125 mg/kg-day | LOAEL (Rattus norvegicus [2]; chronic, duration: 103 weeks, oral, diet, Kidney: Inflammation): 125 mg/kg-day

SMILES: CCOP(=O)(/N=C1\SCC(C)S1)OCC (centres undefined) [Mephosfolan]
NOEL (Rattus norvegicus [2]; chronic, duration: 17 weeks, oral, diet, Blood: Decreased cholinesterase activity + Brain: Decreased cholinesterase activity + Erythrocytes: Decreased cholinesterase activity + …): 0.09 mg/kg-day

LEL (Mus musculus; duration: 0 days, oral, diet): 0.0001 ppm | LEL (fractional dose of pill) (Mus musculus; duration: 3 days, oral): 0.001 | LEL (Mus musculus; [7]): 0.002 mg/kg-day | LEL (Rattus norvegicus [3]; duration: 1 days, dermal): 0.125 mg/L | LEL (Rattus norvegicus [3]; duration: 3 days, oral, diet): 0.001 mg/kg-day | LEL (Rattus norvegicus [3]; duration: 4 days, oral): 0.03 mg/kg-day | LEL (Rattus norvegicus [3]; duration: 4 days, oral, diet): 0.000342 mg/kg-day | LEL (Rattus norvegicus [3]; duration: 21 days, oral): 0.01 mg/kg-day | LEL (Rattus norvegicus [3]; duration: 28 days, oral): 0.2 mg/kg-day
SMILES: C#C[C@]1(O)CC[C@H]2[C@@H]3CCc4cc(O)ccc4[C@H]3CC[C@@]21C [17alpha-Ethinylestradiol]
NOEL (Rattus norvegicus [5]; short-term, duration: 28 days, gavage, Crj:CD, Body Weight Changes: decrease + Food Consumption: decrease + Blood Chemistry: A/G decrease >0 Cho decrease 0 Alp increase, gamma-GTP …): < 0.01 mg/kg-day | LOEL (Rattus norvegicus [3]; [8]): 50 mg/kg-day | NOEL (Rattus norvegicus [3]; [8]): 10 mg/kg-day

SMILES: C=CC(=C)Cl [Chloroprene]
NOAEL (Rattus norvegicus [2]; chronic, duration: 2 years, inhalation, intermittent, Hair: Alopecia + Whole body: Decreased weight gain): 36.2 mg/m3 | NOAEL (Rattus norvegicus [2]; subchronic, duration: 90 days, inhalation, Olfactory epithelium: Degeneration): 116 mg/m3

SMILES: CC(C)c1ccccc1 [Cumene]
LOAEL (Rattus norvegicus [1]; [9]): 331 mg/kg-day | NOAEL (Rattus norvegicus [1]; [9]): 110 mg/kg-day | LOAEL (Rattus norvegicus [1]; [10]): 5910 mg/m3 | NOAEL (Rattus norvegicus [1]; [10]): 2440 mg/m3 | NOAEL (Rattus norvegicus [2]; chronic, duration: 194 days, oral, gavage, Kidney: Increased weight): 154 mg/kg-day | NOAEL (Rattus norvegicus [2]; short-term, duration: 4 weeks, inhalation, intermittent, Central nervous system: Involvement + Nose: Irritation): 517 mg/m3

LEL (Mus musculus; [11]): 0.0005 mg/kg-day | LEL (Mus musculus; duration: 1 days, injection, subcutaneous): 0.00045 mg/animal | LEL (Mus musculus; duration: 1.2 days, injection, subcutaneous): 0.00045 mg/animal | LEL (Mus musculus; [12]): 0.1 mg/kg-day | LEL (Mus musculus; duration: 3 days, oral): 0.02 mg/kg-day | LEL (Mus musculus; duration: 4 days, oral): 0.0006 mg/day | LEL (Mus musculus; duration: 5 days, oral, diet): 0.004 ppm | LEL (Mus musculus; duration: 6 days, oral, diet): 3.6e-05 mg and 5e-05 mg/day | LEL (Mus musculus; duration: 9 days, injection, subcutaneous): 0.5 mg/kg-day | LEL (Mus musculus; duration: 9 days, oral, diet): 0.004 ppm | LEL (Mus musculus; [13]): 0.0001 mg/day | LEL (Mus musculus; duration: 11 days, oral, diet): 0.004 ppm | LEL (Mus musculus; duration: 42 days, injection, subcutaneous): 0.01 mg/kg-day | LEL (Mus musculus; oral): 0.002 mg/kg-day | LEL (Rattus norvegicus [3]; [14]): 0.05 mg | LEL (Rattus norvegicus [3]; duration: 1 days, dermal): 0.5 mg/L | LEL (Rattus norvegicus [3]; [11]): 0.01 mg/kg-day | LEL (Rattus norvegicus [3]; [12]): 0.01 mg/kg-day | LEL (Rattus norvegicus [3]; [7]): 0.01 mg/day | LEL (Rattus norvegicus [3]; duration: 4 days, oral, diet): 0.005 ppm and 0.01 ppm | LEL (Rattus norvegicus [3]; duration: 7 days, oral): 0.0009 mg/kg-day | LEL (Rattus norvegicus [3]; duration: 8 days, injection, intraperitoneal): 0.01 mg/kg-day
SMILES: CC/C(=C(/CC)c1ccc(O)cc1)c1ccc(O)cc1 [Diethylstilbestrol]

SMILES: CC(=O)[O][Hg][c]1ccccc1 [Phenylmercuric acetate]
LOAEL (Rattus norvegicus [1]; [15]): 0.042 mg/kg-day | NOAEL (Rattus norvegicus [1]; [15]): 0.0084 mg/kg-day | NOAEL (Rattus norvegicus [2]; chronic, duration: 2 years, oral, diet, Kidney: Damage): 0.0084 mg/kg-day

SMILES: ClC1=C(Cl)[C@]2(Cl)C3C(Cl)C(Cl)CC3[C@@]1(Cl)C2(Cl)Cl (some centres undefined) [Chlordane]
NOEL (Rattus norvegicus [2]; chronic, duration: 130 weeks, oral, diet, Liver: Hypertrophy): 0.055 mg/kg-day

SMILES: C=CBr [Vinyl bromide]
LOAEL (Rattus norvegicus [1]; chronic, inhalation, M/F, hypertrophy, basophilic and eosinophilic foci, in the liver): 43 mg/m3 | LOAEL (Rattus norvegicus [2]; chronic, duration: 24 months, inhalation, intermittent, Liver: Basophilic foci + Liver: Eosinophilic foci + Liver: Hypertrophy): 42.4 mg/m3

SMILES: CC1CO1 (racemic) [(+/-)-1,2-Propylene oxide]
LOAEL (Rattus norvegicus [1]; chronic, duration: 2 years, inhalation, M/F, nest-like infolds of the nasal respiratory epithelium): 71 mg/m3 | LOAEL (Rattus norvegicus [2]; chronic, duration: 2 years, inhalation, intermittent, Epithelium: Unspecified): 71 mg/m3

SMILES: C=C(C)c1ccccc1 [alpha-Methylstyrene]
NOEL (Rattus norvegicus [2]; chronic, duration: 197 days, inhalation, intermittent, Kidney: Increased weight + Liver: Increased weight): 970 mg/m3

SMILES: S=C([S-])NCCNC(=S)[S-].S=C([S-])NCCNC(=S)[S-].[Mn+2].[Zn+2] [Mancozeb]
NOEL (Rattus norvegicus [2]; chronic, duration: 90 weeks, oral, diet, Thyroid: Goitrogenic effects): 2.9 mg/kg-day

SMILES: COP(=S)(OC)Oc1cc(Cl)c(Br)cc1Cl [Bromofos]
NOAEL (Rattus norvegicus [2]; reproduction developmental, oral, diet, Blood: Decreased cholinesterase activity + Liver: Decreased cholinesterase activity): 5 mg/kg-day

LEL (Mus musculus; duration: 3 days, dermal): 100 mg/day | LEL (Rattus norvegicus [3]; duration: 3 days, oral): 0.16 mg/kg-day
SMILES: O=C(OCc1ccccc1)c1ccc(O)cc1 [Benzyl 4-hydroxybenzoate]

LEL (Mus musculus; duration: 0.17 days, injection, subcutaneous): 0.00027 mg | LEL (Mus musculus; [12]): 1.25 mg/day | LEL (Mus musculus; [7]): 2 mg/day | LEL (Mus musculus; duration: 4 days, oral): 100 mg/kg-day | LEL (Mus musculus; duration: 4 days, oral, diet): 2.5 mg/day | LEL (Mus musculus; duration: 6 days, oral, diet): 5.77 mg | LEL (Mus musculus; duration: 7 days, oral): 200 mg/kg-day | LEL (Mus musculus; [13]): 0.5 mg/day | LEL (Mus musculus; [16]): 2 mg/day and 3 mg/day and 5 mg/day | LEL (Mus musculus; duration: 28 days, injection, subcutaneous): 25 mg/kg-day | LEL (Rattus norvegicus [3]; [14]): 1.25 mg | LEL (Rattus norvegicus [3]; [11]): 0.4 mg | LEL (Rattus norvegicus [3]; duration: 3.5 days, injection, subcutaneous): 1.25 mg/day | LEL (Rattus norvegicus [3]; duration: 4 days, oral): 100 mg/kg-day | LEL (Rattus norvegicus [3]; duration: 5 days, oral, diet): 375 mg/kg-day | LEL (Rattus norvegicus [3]; duration: 7 days, oral): 60 mg/kg-day | LEL (Rattus norvegicus [3]; [16]): 250 mg/kg-day | LEL (Rattus norvegicus [3]; duration: 30 days, oral): 125 mg/kg-day
SMILES: O=c1c(-c2ccc(O)cc2)coc2cc(O)cc(O)c12 [Genistein]
NOEL (Rattus norvegicus [5]; subchronic, diet, Wistar, Body Weight Changes: decrease + Food Consumption: decrease + Hematology: RBC decrease, Ret increase, , Hgb decrease + Blood Chemistry: gamma…): 50 mg/kg-day
